Source: paper PMC3793924, “Targeting Androgen Receptor/Src Complex Impairs the Aggressive Phenotype of Human Fibrosarcoma Cells” (PLoS ONE, 2013)

Assays:
HT1080 cells [1] = experiment: Trans-well migration/invasiveness of HT1080 cells; assay type: cell-based, human; details: quiescent HT1080 cells, collagen-coated Trans-well, 6 h, EGF 100 ng/ml; Casodex 10 μM; S1 and Ss peptides 10 nM
MCF-7 cells [2] = experiment: Trans-well migration of MCF-7 cells; assay type: cell-based, human; details: quiescent MCF-7 cells, 6 h, EGF 100 ng/ml; for Inhibition of EGF-induced motility (transmigration): Casodex 10 μM, S1 and Ss peptides 10 nM
HCT116 cells = experiment: BrdU incorporation in HCT116 cells; assay type: cell-based, human; details: quiescent HCT116 cells, EGF 100 ng/ml, 18 h; for Inhibition of EGF-induced BrdU incorporation: Casodex 10 μM, S1 and Ss peptides 10 nM
Method: (§1) Quiescent human colon cancer-derived HCT116 cells were used. In A, cells on coverslips were left un-stimulated or stimulated for 18 h with the indicated compounds. […] After in vivo pulse with BrdU (100 μM), BrdU incorporation was analyzed by IF and expressed as % of total cells. Several independent experiments were performed in duplicate and the results were derived from at least 400 scored cells for each coverslip. Mean and SEM are shown. n represents the number of experiments. In B, the cells were left untreated or treated for 6 h with the indicated compounds. […] Cells were allowed to migrate in collagen-pre-coated Trans-well filters. Migrated cells were stained and counted as reported in Methods. Results were derived from several independent experiments, each performed in duplicate. Data are expressed as relative increase. Mean and SEM are shown. n represents the number of experiments. Quiescent human pancreatic cancer-derived KP-2 cells were used. In C, cells on coverslips were left unstimulated or stimulated for 18 h with the indicated compounds. […] After in vivo pulse with BrdU (100 μM), BrdU incorporation was analyzed by IF and expressed as % of total cells. Several independent experiments were performed in duplicate and the results were derived from at least 400 scored cells for each coverslip. Mean and SEM are shown. n represents the number of experiments. In D, the cells were left untreated or treated for 6 h with the indicated compounds. […] Cells were allowed to migrate in collagen-pre-coated Trans-well filters. Migrated cells were stained and counted as reported in Methods. Results were derived from several independent experiments, each performed in duplicate. Data are expressed as relative increase. Mean and SEM are shown. n represents the number of experiments. […] After in vivo labeling with 100 μM BrdU (Sigma), DNA synthesis was analyzed by immunofluorescence, using diluted (1:50 in PBS) mouse monoclonal anti-BrdU antibody (clone BU-1, from GE Healthcare).

MCF-7 cells [3] = experiment: BrdU incorporation in MCF-7 cells; assay type: cell-based, human; details: quiescent MCF-7 cells, EGF 100 ng/ml, 18 h; for Inhibition of EGF-induced BrdU incorporation: Casodex 10 μM, S1 and Ss peptides 1nM
Method: (§2) Quiescent human prostate cancer-derived LNCaP cells were used. In A, quiescent cells on coverslips were left unstimulated or stimulated for 18 h with the indicated compounds. […] After in vivo pulse with BrdU (100 μM), BrdU incorporation was analyzed by IF and expressed as % of total cells. Several independent experiments were performed in duplicate and the results were derived from at least 600 scored cells for each coverslip. Mean and SEM are shown. n represents the number of experiments. In B, the cells were left untreated or treated for 6 h with the indicated compounds. […] Cells were allowed to migrate in collagen pre-coated Trans-well filters. Migrated cells were stained and counted as reported in Methods. Results were derived from several independent experiments, each performed in duplicate. Data are expressed as relative increase. Mean and SEM are shown. n represents the number of experiments. Quiescent human breast cancer-derived MCF-7 cells were used. In C, quiescent cells on coverslips were left un-stimulated or stimulated for 18 h with the indicated compounds. […] After in vivo pulse with BrdU (100 μM), BrdU incorporation was analyzed by IF and expressed as % of total cells. Several independent experiments were performed in duplicate and the results were derived from at least 500 scored cells for each coverslip. Mean and SEM are shown. n represents the number of experiments. In D, the cells were left untreated or treated for 6 h with the indicated compounds. […] Cells were allowed to migrate in collagen-pre-coated Trans-well filters. Migrated cells were stained and counted as reported in Methods. Results were derived from several independent experiments, each performed in duplicate. Data are expressed as relative increase. Mean and SEM are shown. n represents the number of experiments.

HT1080 cells [4] = experiment: Wound scratch assay in HT1080 cells; assay type: cell-based, human; details: quiescent HT1080 cells, 6 h, EGF 100 ng/ml; for Effect on EGF-induced wound closure (migration): Casodex 10 μM, S1 and Ss peptides 10 nM
LNCaP cells = experiment: BrdU incorporation in LNCaP cells; assay type: cell-based, human; details: quiescent LNCaP cells, EGF 100 ng/ml, 18 h; for Inhibition of EGF-induced BrdU incorporation: Casodex 10 μM, S1 and Ss peptides 10 nM
Method: as §2

KP-2 cells = experiment: BrdU incorporation in KP-2 cells; assay type: cell-based, human; details: quiescent KP-2 cells, EGF 100 ng/ml, 18 h; for Inhibition of EGF-induced BrdU incorporation: Casodex 10 μM, S1 and Ss peptides 10 nM
Method: as §1

AR/Src complex = test system: AR/Src complex; parameters: method as in PMID 17486077; details: androgen-challenged prostate cancer LNCaP cells; cited from earlier work
Text: (§3) Such a crosstalk has been previously analyzed in prostate cancer-derived LNCaP cells. […] The S1 peptide derives from the 377-386 amino-acid sequence of AR that is rich in prolines and is responsible for association of AR with t ...

HT1080 cells [5] = details: various cell types, including HT1080 cells (Figure S1); cited from earlier work
Text: as §3

With `CC(O)(CS(=O)(=O)c1ccc(F)cc1)C(=O)Nc1ccc(C#N)c(C(F)(F)F)c1` (stereo not shown) [Casodex] the “Inhibition of EGF-induced invasiveness (trans-migration)” value (“Inhibition of EGF-induced invasiveness” for short) (HT1080 cells [1]) was “inhibited to a similar extent”, the “Inhibition of EGF-induced motility (transmigration)” value (MCF-7 cells [2]) was “inhibited to a similar extent” and the “Inhibition of EGF-induced BrdU incorporation” value (HCT116 cells) was “similarly inhibit these EGF-elicited responses”. For the same compound, the “Inhibition of EGF-induced BrdU incorporation” value (MCF-7 cells [3]) was “inhibits EGF-induced BrdU incorporation”, the “Effect on EGF-induced wound closure (migration)” value (shortened to “Effect”) (HT1080 cells [4]) was “Only few cells migrate” and the “Inhibition of EGF-induced BrdU incorporation” value (LNCaP cells) was “inhibits EGF-induced BrdU incorporation”. For the same compound, the “Inhibition of EGF-induced BrdU incorporation” value (KP-2 cells) was “inhibit both DNA synthesis and motility”.

In the case of “EGF: epidermal growth factor (Roche), used as stimulus at 100 ng/ml”, the “Motility in transmigration assay upon stimulation” value (MCF-7 cells [2]) is reported as “significantly increases the motility”, the “BrdU incorporation upon stimulation” value (HCT116 cells) is reported as “robustly increases BrdU incorporation” and the “BrdU incorporation upon stimulation” value (MCF-7 cells [3]) is reported as “robustly incorporate BrdU”. For the same compound, the “Wound closure upon stimulation” value (HT1080 cells [4]) was “almost complete wound closure”, the “BrdU incorporation upon stimulation” value (LNCaP cells) was “robustly incorporate BrdU” and the “BrdU incorporation upon stimulation” value (KP-2 cells) was “significantly increases BrdU incorporation”.

In the case of Ac-PPPHPHARIK-NH2 [S1 peptide], the “Inhibition of EGF-induced invasiveness” value (HT1080 cells [1]) is reported as “inhibited to a similar extent”, the “Inhibition of EGF-induced motility (transmigration)” value (MCF-7 cells [2]) is reported as “inhibited to a similar extent” and the “Inhibition of EGF-induced BrdU incorporation” value (HCT116 cells) is reported as “similarly inhibit these EGF-elicited responses”. For the same compound, the “Competition for AR association with the Src-SH3 domain” value (AR/Src complex) was “competes for this association”, the “Inhibition of EGF-induced BrdU incorporation” value (MCF-7 cells [3]) was “abolishes the mitogenic response elicited by EGF” and the “Effect” value (HT1080 cells [4]) was “consistently inhibits the EGF-induced effect”. The “Inhibition of EGF-induced BrdU incorporation” value (LNCaP cells) was “abolishes the mitogenic response elicited by EGF”, the Diffusion across membranes (HT1080 cells [5]) was “rapidly diffuses across membranes” and the “Inhibition of EGF-induced BrdU incorporation” value (KP-2 cells) was “inhibit both DNA synthesis and motility”.

For Ac-HPKPARIPHP-NH2 [Ss peptide], the “Inhibition of EGF-induced invasiveness” value (HT1080 cells [1]) was “not by Ss peptide”, the “Inhibition of EGF-induced BrdU incorporation” value (HCT116 cells) was “does not interfere with the EGF-elicited responses” and the “Inhibition of EGF-induced BrdU incorporation” value (MCF-7 cells [3]) was “only slightly affects DNA synthesis”. For the same compound, the “Effect” value (HT1080 cells [4]) was “much weaker inhibitory effect”, the “Inhibition of EGF-induced BrdU incorporation” value (LNCaP cells) was “only slightly affects DNA synthesis” and the “Inhibition of EGF-induced BrdU incorporation” value (KP-2 cells) was “does not interfere with the EGF-elicited responses”.
